The results in this text go back to patent US20260356860A1, “2-SUBSTITUTED 3,4A,5,7,8,8A-HEXAHYDRO-4H-THIOPYRANO[4,3-DJPYRIMIDIN-4-ONES FOR WOUND TREATMENT” (priority 2022, published 2026).

Each structure is given as a SMILES string.

The first assay deals with HEK293 SuperTOPFlash reporter cells, Wnt promoter. Kind of assay: HEK CELL Wnt Assay (luciferase reporter). The class given is cell-based. The following applies: @ >10,000 nM. On the procedure:
In order to determine the effect of the compounds of Formula (I) on Wnt inhibition, an in vitro assay using HEK293 SuperTOPFlash reporter cells, with the Wnt promoter driving a luciferase reporter gene, were utilized. 40,000 HEK293 SuperTOPFlash reporter cells were seeded, per well, in a 48 well plate for 24 hours, prior to administration of serial dilutions of the compound of Formula (I) to individual wells. Serial dilutions ranging from […] to 1 nM of the compound of Formula (I) were added with or without 50 ng/mL Wnt3a (Time Biosciences) and allowed to incubate with the reporter cells for 18 hours. Reporter cells with no treatment were used as negative control.
Turning to `N#Cc1ccc2c(c1)[nH]c(=O)n2[C@H]1C[C@H](c2nc3c(c(=O)[nH]2)CSCC3)C1` [Compound 2, 2-oxo-1-((1r,3r)-3-(4-oxo-3,5,7,8-tetrahydro-4H-thiopyrano[4,3-d]pyrimidin-2-yl)cyclobutyl)-2,3-dihydro-1H-benzo[d]imidazole-5-carbonitrile], the “HEK CELL Wnt inhibition” value is 60% inhibition @ >10,000 nM.

The same assay, now with this note: serial dilutions, with or without 50 ng/mL Wnt3a; 18 h.
In the case of `O=c1[nH]c(-c2ccc(-c3ccc(Br)cc3)cc2)nc2c1CSCC2`, the midpoint of inhibition, the IC50, lay at 100 nM.

The target in another assay is T1, Tankyrase 2 (TNKS2) (Homo sapiens, UniProt Q9H2K2).
T1 sequence (Q9H2K2 1-1166): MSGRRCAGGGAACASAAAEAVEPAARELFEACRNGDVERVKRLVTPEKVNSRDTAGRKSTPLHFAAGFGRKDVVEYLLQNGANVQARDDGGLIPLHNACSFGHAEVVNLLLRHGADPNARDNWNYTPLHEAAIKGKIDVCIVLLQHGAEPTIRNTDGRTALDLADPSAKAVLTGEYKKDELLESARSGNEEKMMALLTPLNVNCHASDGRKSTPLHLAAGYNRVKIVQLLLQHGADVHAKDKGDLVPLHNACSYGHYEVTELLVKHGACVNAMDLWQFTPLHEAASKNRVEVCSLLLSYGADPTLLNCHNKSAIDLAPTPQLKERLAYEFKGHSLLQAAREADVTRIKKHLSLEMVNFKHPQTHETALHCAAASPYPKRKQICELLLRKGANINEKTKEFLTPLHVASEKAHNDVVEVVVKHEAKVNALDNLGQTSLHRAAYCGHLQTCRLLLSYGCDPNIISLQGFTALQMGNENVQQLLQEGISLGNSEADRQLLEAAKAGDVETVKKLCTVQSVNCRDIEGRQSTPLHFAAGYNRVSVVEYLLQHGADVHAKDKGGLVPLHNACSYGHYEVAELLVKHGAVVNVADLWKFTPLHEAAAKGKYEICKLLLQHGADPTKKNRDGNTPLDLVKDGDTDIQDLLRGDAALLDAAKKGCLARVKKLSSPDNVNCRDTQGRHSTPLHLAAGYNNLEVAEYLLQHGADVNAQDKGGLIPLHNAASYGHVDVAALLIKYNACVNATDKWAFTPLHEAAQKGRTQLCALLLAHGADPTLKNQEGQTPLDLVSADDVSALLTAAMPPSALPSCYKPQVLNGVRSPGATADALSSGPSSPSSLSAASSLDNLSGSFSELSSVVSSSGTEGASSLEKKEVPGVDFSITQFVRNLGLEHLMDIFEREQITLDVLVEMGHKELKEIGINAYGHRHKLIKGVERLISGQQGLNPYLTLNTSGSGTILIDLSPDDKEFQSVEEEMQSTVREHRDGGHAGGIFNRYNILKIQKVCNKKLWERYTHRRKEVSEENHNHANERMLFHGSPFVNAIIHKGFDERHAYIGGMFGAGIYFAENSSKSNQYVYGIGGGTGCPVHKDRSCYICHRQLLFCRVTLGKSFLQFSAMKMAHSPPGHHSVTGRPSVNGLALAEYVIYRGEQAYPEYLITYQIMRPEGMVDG
Kind of assay: TNK2 Binding Assay (Tankyrase 2 ribosylation, chemiluminescence). The class given is biochemical.
Details: not given
As to the method:
Tankyrase 2 assay (n=3) was performed with the following steps: step 1, coating a 96-well plate with 50 μL/well of histone solution; step 2, conducting ribosylation reaction; and step 3, detection.
Step 1: Coating a 96-Well Plate with 50 μL/Well of Histone Solution.
A 5× histone mixture was diluted 1:5 with PBS to make a 1× histone in PBS mixture. 50 μL of the histone mixture was added to each well and incubated at 4° C. overnight. The plate was washed three times using 200 μL PBST buffer (1×PBS containing 0.05% Tween*20 (polysorbate 20) per well. The plate was tapped onto a clean paper towel to remove the liquid. The wells were blocked by adding 200 μL of blocking buffer 3 to each well. The plate was incubated at room temperature for at least 90 minutes. The plate was washed three times with 200 μL PBST buffer. The plate was tapped onto a clean paper towel to remove the liquid.
A fresh solution of 10 mM DTT in water was prepared.
A master mix was prepared and delivered to each well (25 μL/well). Master mix delivered to each well: (2.5 μL of 10×PARP assay buffer (purchased from BPS Bioscience)+2.5 μL of PARP substrate mixture 2+17.5 μL of water+2.5 μL of 10 mM fresh DTT). The concentration of DTT in the master mix was 1 mM. 25 μL of master mix was added to each well.
1×PARP buffer with DTT was prepared. 10×PARP assay buffer was diluted to 1×PARP assay buffer containing DTT by adding 1 volume of 10×PARP assay buffer+1 volume of 10 mM DTT+8 volumes of water. The concentration of DTT in the 1×PARP assay buffer was 1 mM.
5 μL of a test inhibitor was added to each well labeled as “Test Inhibitor.” For the “Positive Control,” the PARP inhibitor, XAV939, was used. For the negative control, no inhibitor is added to the assay mix.
The Tankyrase 2 (TNKS2) enzyme on ice was thawed. The tube containing the enzyme was spun briefly to recover the full content of the tube. The amount of TNKS2 enzyme required for the assay was calculated and the enzyme was diluted to 0.5 ng/μL with 1×PARP assay buffer with DTT. 16) The final concentration of TNKS2 enzyme in the assay was 2 nM. The reaction was initiated by adding 10 μL of diluted TNKS2 enzyme to each well designated “Positive Control” and “Test Inhibitor.” To each well designated as “Blank,” 10 μL of 1×PARP assay buffer with DTT was added. The plate was incubated at room temperature for 1 hour. The plate was washed three times with 100 μL of PBST buffer and the plate was tapped onto a clean paper towel.
1) Streptavidin-HRP was diluted 1:50 in Blocking buffer (purchased from BPS Bioscience) 3.50 μL of diluted Streptavidin-RP was added to each well and incubated for 30 minutes at room temperature. The plate was washed three times with 100 μL of PBST buffer and tapped onto a clean paper towel. Just before use, 1 volume of ELISA ECL Substrate A and 1 volume of ELISA ECL Substrate B were mixed on ice; and 100 μL was added to each well. Immediately, the plate was read in a luminometer or microtiter-plate reader capable of reading chemiluminescence. The “Blank” value was subtracted from all other values.
For `CC(C)(OCCO)c1c(F)cc(-c2nc3c(c(=O)[nH]2)CSCC3)cc1F` [Compound 15, 2-(3,5-difluoro-4-(2-(2-hydroxyethoxy)propan-2-yl)phenyl)-3,5,7,8-tetrahydro-4H-thiopyrano[4,3-d]pyrimidin-4-one], the IC50 came to 90 nM.
On the same count and under the same terms, with `O=c1[nH]c(-c2ccc(-c3ccc(Br)nc3)c(F)c2)nc2c1CSCC2` [Compound 20, 2-(4-(6-bromopyridin-3-yl)-3-fluorophenyl)-3,5,7,8-tetrahydro-4H-thiopyrano[4,3-d]pyrimidin-4-one] the figure was 4 nM.
On to `O=c1[nH]c(-c2ccc(-c3ccnc(Br)c3)cc2)nc2c1CSCC2` [Compound 23, 2-(4-(2-bromopyridin-4-yl)phenyl)-3,5,7,8-tetrahydro-4H-thiopyrano[4,3-d]pyrimidin-4-one], for which the IC50 was 14 nM. This IC50 lies about 3.5-fold higher than the previous one.
The compound `O=c1[nH]c(-c2ccc(B(O)O)c(O)c2)nc2c1CSCC2` [Compound 30, (2-hydroxy-4-(4-oxo-3,5,7,8-tetrahydro-4H-thiopyrano[4,3-d]pyrimidin-2-yl)phenyl)boronic acid] had a half-maximal inhibitory concentration (IC50) of 20 nM. The IC50 values of the last two compounds are within 1.5-fold of each other.
With `O=c1[nH]c(-c2ccc(B(O)O)cc2O)nc2c1CSCC2` [Compound 31, (3-hydroxy-4-(4-oxo-3,5,7,8-tetrahydro-4H-thiopyrano[4,3-d]pyrimidin-2-yl)phenyl)boronic acid], the half-maximal inhibitory concentration (IC50) is 3530 nM.
Compound `COc1cc(-c2nc3c(c(=O)[nH]2)CSCC3)ccc1B(O)O` [Compound 32, (2-methoxy-4-(4-oxo-3,5,7,8-tetrahydro-4H-thiopyrano[4,3-d]pyrimidin-2-yl)phenyl)boronic acid] came in with an IC50 of 111 nM.
In turn, `COC(=O)NCCOC(C)(C)c1ccc(-c2nc3c(c(=O)[nH]2)CSCC3)cc1O` [Compound 33, methyl (2-((2-(2-hydroxy-4-(4-oxo-3,5,7,8-tetrahydro-4H-thiopyrano[4,3-d]pyrimidin-2-yl)phenyl)propan-2-yl)oxy)ethyl)carbamate] gave an IC50 of 12 nM. Compared with the last compound, the IC50 is about 9.2-fold lower.
On the same count and under the same terms, with `COC(=O)NCCOC(C)(C)c1ccc(-c2nc3c(c(=O)[nH]2)CSCC3)cc1OC` [Compound 34, methyl (2-((2-(2-methoxy-4-(4-oxo-3,5,7,8-tetrahydro-4H-thiopyrano[4,3-d]pyrimidin-2-yl)phenyl)propan-2-yl)oxy)ethyl)carbamate] the figure was 164 nM; with `COC(=O)NCCOC(C)(C)c1ccc(-c2nc3c(c(=O)[nH]2)CSCC3)cc1C` [Compound 35, methyl (2-((2-(2-methyl-4-(4-oxo-3,5,7,8-tetrahydro-4H-thiopyrano[4,3-d]pyrimidin-2-yl)phenyl)propan-2-yl)oxy)ethyl)carbamate], 13 nM.
The same measure, in the same setting: for `N#Cc1cc(-c2ccc(B(O)O)cc2)ccc1-c1nc2c(c(=O)[nH]1)CSCC2` [Compound 36, (3′-cyano-4′-(4-oxo-3,5,7,8-tetrahydro-4H-thiopyrano[4,3-d]pyrimidin-2-yl)-[1,1′-biphenyl]-4-yl)boronic acid] the value was 29 nM; for `N#Cc1cc(B(O)O)ccc1-c1nc2c(c(=O)[nH]1)CSCC2` [Compound 37, (3-cyano-4-(4-oxo-3,5,7,8-tetrahydro-4H-thiopyrano[4,3-d]pyrimidin-2-yl)phenyl)boronic acid], 16 nM.
With `COC(=O)NCCOC(C)(C)c1ccc(-c2nc3c(c(=O)[nH]2)CSCC3)c(C#N)c1` [Compound 38, methyl (2-((2-(3-cyano-4-(4-oxo-3,5,7,8-tetrahydro-4H-thiopyrano[4,3-d]pyrimidin-2-yl)phenyl)propan-2-yl)oxy)ethyl)carbamate], the half-maximal inhibitory concentration (IC50) worked out at 72 nM.
`COC(=O)NCCOC(C)(C)c1ccc(-c2nc3c(c(=O)[nH]2)CSCC3)cc1C#N` [Compound 39, methyl (2-((2-(2-cyano-4-(4-oxo-3,5,7,8-tetrahydro-4H-thiopyrano[4,3-d]pyrimidin-2-yl)phenyl)propan-2-yl)oxy)ethyl)carbamate]: the concentration for half-maximal inhibition (IC50) worked out at 650 nM.
On the same count and under the same terms, with `O=c1[nH]c(-c2ccc(B(O)O)cc2Cl)nc2c1CSCC2` [Compound 40, (3-chloro-4-(4-oxo-3,5,7,8-tetrahydro-4H-thiopyrano[4,3-d]pyrimidin-2-yl)phenyl)boronic acid] the figure was 443 nM.
On to `O=c1[nH]c(N2CCN(c3ccc(B(O)O)cc3)CC2)nc2c1CSCC2` [Compound 41, (4-(4-(4-oxo-3,5,7,8-tetrahydro-4H-thiopyrano[4,3-d]pyrimidin-2-yl)piperazin-1-yl)phenyl)boronic acid], for which the concentration for half-maximal inhibition (IC50) came to 8.7 nM. Compared with the last compound, the IC50 is about 51-fold lower.
Regarding `O=c1[nH]c(N2CCN(c3c(F)cc(OCCO)cc3F)CC2)nc2c1CSCC2` [Compound 42, 2-(4-(2,6-difluoro-4-(2-hydroxyethoxy)phenyl)piperazin-1-yl)-3,5,7,8-tetrahydro-4H-thiopyrano[4,3-d]pyrimidin-4-one], the IC50 came to 9.7 nM.
The same measure, in the same setting: with `CC1(C)OB(O)c2ccc(-c3nc4c(c(=O)[nH]3)CSCC4)cc21` [Compound 44, 2-(1-hydroxy-3,3-dimethyl-1,3-dihydrobenzo[c][1,2]oxaborol-5-yl)-3,5,7,8-tetrahydro-4H-thiopyrano[4,3-d]pyrimidin-4-one] the figure was 630 nM.
